Experimental data taken from publication PMC5570900, “Exploiting a novel conformational switch to control innate immunity mediated by complement protein C3a” (Nature Communications, 2017).

How the values were obtained:
C5aR = target: T1, C5aR (Homo sapiens, UniProt P21730); experiment: [125I]-hC5a competition binding on HMDMs; conditions: [125I]-hC5a 25 pM
T1 construct: endogenous in cells; host or cells: primary human monocyte-derived macrophages (HMDMs)
T1 sequence (P21730 1-350): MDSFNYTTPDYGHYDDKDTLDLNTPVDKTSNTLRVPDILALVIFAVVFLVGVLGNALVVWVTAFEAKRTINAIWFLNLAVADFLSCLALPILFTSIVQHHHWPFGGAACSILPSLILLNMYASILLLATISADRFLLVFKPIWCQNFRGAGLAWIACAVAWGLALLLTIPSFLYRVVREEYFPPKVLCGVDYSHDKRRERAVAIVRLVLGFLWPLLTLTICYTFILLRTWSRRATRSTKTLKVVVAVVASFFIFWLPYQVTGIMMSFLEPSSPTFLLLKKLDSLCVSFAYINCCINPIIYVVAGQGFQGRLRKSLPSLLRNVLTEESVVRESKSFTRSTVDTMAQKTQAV
Experimental: (§1) Receptor binding was performed by ligand competition with labelled 80 pM [^125I]-C3a or 25 pM [^125I]-C5a (2200 Ci/mmol; Perkin Elmer, Torrance, CA, USA) on HMDMs (1.2 × 10^6 cells/ml). HMDMs were treated with [^125I]-C3a or [^125I]-C5a ± various concentrations of unlabelled C3a/C5a or experimental ligands were diluted with assay buffer (50 mM Tris, 3 mM MgCl2, 0.1 mM CaCl2, 0.5% (w/v) BSA, pH 7.4) for 60 min at room temperature. Unbound [^125I]-C3a or [^125I]-C5a was removed by filtration through glass microfibre filter GF/B (Whatman Iner. Ltd, England) and washed three times with cold buffer (50 mM Tris-HCl pH 7.4). Bound [^125I]-C3a or [^125I]-C5a were assessed by scintillation counting on Microbeta counter. Specific binding was defined as the difference between total binding and nonspecific binding as determined in the presence of 1 μM unlabelled C3a or C5a[4].

[1] = Rat liver microsomal stability; assay type: in vitro ADME; conditions: rat liver microsomes, NADPH, 37 °C, over 1 h
Experimental: (§2) For plasma stability studies, C3a and experimental compounds (10 μL, 1 mM in DMSO) were added to neat rat plasma (190 μL) and heated to 37 °C in a circulating water bath. Aliquots (20 µL) were collected at time points (0, 2, 5 and 10 min for C3a; 0, 5, 15, 30, 60, 120 and 240 min for other test compounds) and added directly to MeCN/H2O (80 µL, 9:1). The samples were centrifuged at 13,000 g for 3 min before supernatants were isolated and analyzed for test compound degradation via LC-MS. For liver microsomal stability studies, commercially available rat liver microsomes from Life Technologies, GIBCO were used. In brief, microsomes stored at −80 °C were slowly defrosted on ice. Test compounds (183 μL, 1 μM in 100 mM phosphate buffer pH 7.4 containing 0.1 % DMSO) were added to microsomes (5 μL) and NADPH (2 µL, 20 mM). Test solutions were heated in a circulating water bath at 37 °C for 5 min before additional cofactor NADPH (10 μL, 20 mM) was added. Aliquots (20 μL) were taken at time points (0, 5, 15, 30 and 60 min from the second addition of NADPH). Aliquots were added to MeCN/H2O (80 μL, 9:1) and centrifuged at 13,000 g for 3 min. Supernatants were analyzed for test compound degradation by LC-MSMS. Concentrations were plotted as a function of time on a semi-logarithmic graph. Rat plasma and microsomal activity was confirmed by rapid degradation of SLIGRL-NH2 (t1/2 < 5 min) in a parallel experiment.

C3aR [2] = target: T2, C3aR (Homo sapiens, UniProt Q16581); experiment: Intracellular Ca2+ release in HEK293 cells transfected with C3aR; assay type: cell-based; design: Concentration-dependent Ca^2+ release in human monocyte-derived macrophages (HMDMs); endogenous in cells; host or cells: primary human monocyte-derived macrophages (HMDMs)
T2 sequence (Q16581 1-482): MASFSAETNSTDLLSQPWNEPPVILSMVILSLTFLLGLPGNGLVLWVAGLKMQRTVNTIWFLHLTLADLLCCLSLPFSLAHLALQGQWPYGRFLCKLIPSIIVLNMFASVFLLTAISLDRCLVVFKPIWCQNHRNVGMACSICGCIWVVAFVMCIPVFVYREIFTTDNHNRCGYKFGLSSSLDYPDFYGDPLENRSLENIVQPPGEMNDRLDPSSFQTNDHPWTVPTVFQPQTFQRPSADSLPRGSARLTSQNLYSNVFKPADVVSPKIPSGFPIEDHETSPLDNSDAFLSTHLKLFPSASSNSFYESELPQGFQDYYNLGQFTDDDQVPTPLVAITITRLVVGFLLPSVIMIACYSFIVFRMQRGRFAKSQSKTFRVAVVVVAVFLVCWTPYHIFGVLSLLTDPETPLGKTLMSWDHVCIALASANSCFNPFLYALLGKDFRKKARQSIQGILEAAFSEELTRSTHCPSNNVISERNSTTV

[3] = tested on: wild-type human HEK293 cells (C3aR−/−); experiment: Intracellular Ca2+ release in wild-type HEK293 cells; assay type: cell-based
C3aR [4] = target: T2, C3aR; experiment: [125I]-hC3a competition binding on HMDMs; design: Concentration-dependent Ca^2+ release in human monocyte-derived macrophages (HMDMs); endogenous in cells; host or cells: primary human monocyte-derived macrophages (HMDMs); conditions: [125I]-hC3a 80 pM
Experimental: as §1

Rat plasma stability = assay type: in vitro ADME; conditions: neat rat plasma, 37 °C, over 4 h (C3a up to 10 min)
Experimental: as §2

C3aR [5] = target: T2, C3aR; experiment: Antagonism of agonist 3-induced iCa2+ release in HMDMs (Schild analysis); assay type: cell-based; design: Concentration-dependent Ca^2+ release in human monocyte-derived macrophages (HMDMs); endogenous in cells; host or cells: primary human monocyte-derived macrophages (HMDMs)
Experimental: HMDMs were seeded to a 96-well clear-bottom black-wall assay plate at a density of 5 × 10^4 cells per well and allowed to adhere overnight. Prior to assay, cells were incubated with dye-loading buffer (Hank’s balance salt solution (HBSS) buffer, 4 μM Fluo-3 AM, 25 μl Pluronic acid F-127 and 1% fetal bovine serum) for 1 h at 37 °C. Cells were then washed once with assay buffer (HBSS supplemented with 2.5 mM probenecid and 20 mM HEPES, pH 7.4). Intracellular calcium release was monitored using a fluorescence imaging plate reader (excitation 495 nm, emission 520 nm). The percentage responses were plotted against logarithmic concentrations of each test compound[42].

Compound	C5aR binding by competition with [125I]-hC5a (C5aR)	Stability in rat liver microsomes [1]	Intracellular Ca2+ release (C3aR [2]; HEK293 cells transfected with C3aR (C3aR+/+), compound alone)	Intracellular Ca2+ release [3]	C3aR binding by competition with [125I]-hC3a (C3aR [4])	Stability in rat plasma (Rat plasma stability)	Effect on Ca2+ release induced by C3a or 3 (C3aR [2]; C3aR-HEK293 cells, pre-treatment 30 min before C3a or 3)	Mode of antagonism of agonist 3-induced Ca2+ release (C3aR [5])	Schild plot slope (C3aR [5]; agonist 3 with 0–1000 nM antagonist 6, pre-treated 30 min, r2 = 0.99)
Cc1[nH]c(C(c2ccccc2)c2ccccc2)nc1C(=O)N[C@@H](CCCNC(=N)N)C(=O)O [Compound 3]	no binding	much more stable than C3a	did induce Ca^2+ release	did not induce Ca^2+ release	compete with ^125I-labelled C3a	remained intact	–	–	–
N=C(N)NCCCC(NC(=O)c1ccc(C(c2ccccc2)c2ccccc2)s1)C(=O)O (centres unmarked) [Compound 6]	no binding	much more stable than C3a	–	did not induce Ca^2+ release	compete with ^125I-labelled C3a	remained intact	prevented	insurmountable antagonism	0.77 ± 0.05
